Laboratory results as given in US12509444B2, “Compounds and methods for CD73 modulation and indications therefor” (Plexxikon Inc., priority 2019, dated 2025).

Assays:
human CD73 = target: T1, human CD73 (Homo sapiens, UniProt P21589); assay: Inhibitor activity against CD73 in cell based assay (CD73 expressing CHO-K1 cells); details: CHO-K1 cells expressing human CD73, 150 μM AMP, 4 hours of incubation; read-out: CHO-K1 CELL VARIANT: CD73 IC50
T1 construct: expressed in transfected cells
T1 sequence (P21589 27-549): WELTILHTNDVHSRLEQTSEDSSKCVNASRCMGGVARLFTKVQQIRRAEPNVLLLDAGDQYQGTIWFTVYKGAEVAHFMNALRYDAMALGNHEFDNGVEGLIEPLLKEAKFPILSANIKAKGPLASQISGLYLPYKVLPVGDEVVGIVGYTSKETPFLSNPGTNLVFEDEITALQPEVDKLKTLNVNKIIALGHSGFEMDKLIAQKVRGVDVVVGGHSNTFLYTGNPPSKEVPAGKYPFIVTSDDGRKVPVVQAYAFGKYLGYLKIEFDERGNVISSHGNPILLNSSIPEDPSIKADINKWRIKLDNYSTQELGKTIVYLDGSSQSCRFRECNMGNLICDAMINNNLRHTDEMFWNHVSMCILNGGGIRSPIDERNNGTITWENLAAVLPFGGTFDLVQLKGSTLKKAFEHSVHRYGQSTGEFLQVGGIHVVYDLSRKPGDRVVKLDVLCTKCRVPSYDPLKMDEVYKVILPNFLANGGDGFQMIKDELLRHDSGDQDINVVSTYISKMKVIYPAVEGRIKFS
Summary of the method: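 Stably transfected CHO-K1 cells expressing human CD73 (1×10^4/well) incubated 4 h with compound (8-point 1:3 titration, top 10 μM final, 0.2% DMSO) and 150 μM AMP. Residual AMP in supernatant measured by CellTiter-Glo luminescence with 1 μM ATP after 30 min at room temperature; IC50 by nonlinear regression of percent inhibition vs high/low controls.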

[1] = target: T2, Human CD73 (amino acid residues 27-549) (Homo sapiens, UniProt P21589); assay: CD73 enzymatic assay (luciferase-based indirect assay, CellTiter-Glo); format: biochemical; details: 0.4 nM CD73, 150 μM AMP, 1 hour at room temperature
T2 construct: Human CD73 (amino acid residues 27-549); His tag (N); made in house; host or cells: E. coli
T2 sequence (P21589 27-549): T1 sequence (P21589 27-549)
Summary of the method: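 His-tagged human CD73 (27-549) from E. coli, 0.4 nM, with 150 μM AMP in 50 mM HEPES pH 7.4, 0.01% Tween 20; 1 h at room temperature. AMP remaining read by CellTiter-Glo 2.0 luminescence with 1 μM final ATP after 30 min. IC50 from nonlinear regression of % inhibition.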

| IC50 (human CD73) [µM] | IC50 [1] [µM] | Structure (SMILES) |
| --- | --- | --- |
| 0.001 to 10 | 0.001 to 10 | CNC(=O)N[C@H]1CC[C@H](NC(=O)O[C@@H]2CCN(c3cn[nH]c(=O)c3Cl)C2)CC1 [P-0319, (R)-1-(5-chloro-6-oxo-1,6-dihydropyridazin-4-yl)pyrrolidin-3-yl ((1r,4R)-4-(3-methylureido)cyclohexyl) carbamate] |
| 0.001 to 10 | 0.001 to 10 | CC(C)NC(=O)N[C@H]1CC[C@H](NC(=O)O[C@@H]2CCN(c3cn[nH]c(=O)c3Cl)C2)CC1 [P-0320, (R)-1-(5-chloro-6-oxo-1,6-dihydropyridazin-4-yl)pyrrolidin-3-yl ((1r,4R)-4-(3-isopropylureido)cyclohexyl) carbamate] |
| 0.001 to 10 | 0.001 to 10 | Cc1ccc(NC(=O)N[C@H]2CC[C@H](NC(=O)O[C@@H]3CCN(c4cn[nH]c(=O)c4Cl)C3)CC2)cc1 [P-0321, (R)-1-(5-chloro-6-oxo-1,6-dihydropyridazin-4-yl)pyrrolidin-3-yl ((1r,4R)-4-(3-(p-tolyl)ureido)cyclohexyl) carbamate] |
| 0.001 to 10 | 0.001 to 10 | N#Cc1ccc(NC(=O)N[C@H]2CC[C@H](NC(=O)O[C@@H]3CCN(c4cn[nH]c(=O)c4Cl)C3)CC2)cc1 [P-0322, (R)-1-(5-chloro-6-oxo-1,6-dihydropyridazin-4-yl)pyrrolidin-3-yl ((1r,4R)-4-(3-(4-cyanophenyl)ureido)cyclohexyl)carbamate] |
| 0.001 to 10 | 0.001 to 10 | O=C(Nc1ccc(F)cc1F)N[C@H]1CC[C@H](NC(=O)O[C@@H]2CCN(c3cn[nH]c(=O)c3Cl)C2)CC1 [P-0323, (R)-1-(5-chloro-6-oxo-1,6-dihydropyridazin-4-yl)pyrrolidin-3-yl ((1r,4R)-4-(3-(2,4-difluorophenyl)ureido)cyclohexyl)carbamate] |
| 0.001 to 10 | 0.001 to 10 | O=C(NCC(F)(F)F)N[C@H]1CC[C@H](NC(=O)O[C@@H]2CCN(c3cn[nH]c(=O)c3Cl)C2)CC1 [P-0324, (R)-1-(5-chloro-6-oxo-1,6-dihydropyridazin-4-yl)pyrrolidin-3-yl ((1r,4R)-4-(3-(2,2,2-trifluoroethyl)ureido)cyclohexyl)carbamate] |
| 0.001 to 10 | 0.001 to 10 | COC(=O)N[C@H]1CC[C@H](NC(=O)O[C@@H]2CCN(c3cn[nH]c(=O)c3Cl)C2)CC1 [P-0325, (R)-1-(5-chloro-6-oxo-1,6-dihydropyridazin-4-yl)pyrrolidin-3-yl methyl ((1R,4r)-cyclohexane-1,4-diyl)dicarbamate] |
| 0.001 to 10 | 0.001 to 10 | O=C(NC1CC1)N[C@H]1CC[C@@H](NC(=O)O[C@@H]2CCN(c3cn[nH]c(=O)c3Cl)C2)CC1 [P-0326, (R)-1-(5-chloro-6-oxo-1,6-dihydropyridazin-4-yl)pyrrolidin-3-yl ((1s,4S)-4-(3-cyclopropylureido)cyclohexyl) carbamate] |
| 0.001 to 10 | 0.001 to 10 | CC(C)(C)C(=O)N[C@H]1CC[C@@H](NC(=O)O[C@@H]2CCN(c3cn[nH]c(=O)c3Cl)C2)CC1 [P-0327, (R)-1-(5-chloro-6-oxo-1,6-dihydropyridazin-4-yl)pyrrolidin-3-yl ((1s,4S)-4-pivalamidocyclohexyl) carbamate] |
| 0.001 to 10 | 0.001 to 10 | O=C(NC1CCC2(CC1)CS(=O)(=O)C2)O[C@@H]1CCN(c2cn[nH]c(=O)c2Cl)C1 [P-0328, (R)-1-(5-chloro-6-oxo-1,6-dihydropyridazin-4-yl)pyrrolidin-3-yl (2,2-dioxido-2-thiaspiro[3.5]nonan-7-yl)carbamate] |
| 0.001 to 10 | 0.001 to 10 | O=C(N[C@H]1CC[C@@H](NC2CCCCC2)CC1)O[C@@H]1CCN(c2cn[nH]c(=O)c2Cl)C1 [P-0329, (R)-1-(5-chloro-6-oxo-1,6-dihydropyridazin-4-yl)pyrrolidin-3-yl ((1s,4S)-4-(cyclohexylamino)cyclohexyl) carbamate] |
| 0.001 to 10 | 0.001 to 10 | O=C(N[C@H]1CC[C@@H](Nc2cc(F)ccn2)CC1)O[C@@H]1CCN(c2cn[nH]c(=O)c2Cl)C1 [P-0330, (R)-1-(5-chloro-6-oxo-1,6-dihydropyridazin-4-yl)pyrrolidin-3-yl ((1s,4S)-4-((4-fluoropyridin-2-yl)amino)cyclohexyl)carbamate] |
| 10 to 100 | 0.001 to 10 | CC(C)(O)Cn1ncc(N2CC[C@@H](OC(=O)NC3CCC(F)(F)CC3)C2)c(Cl)c1=O [P-0331, (R)-1-(5-chloro-1-(2-hydroxy-2-methylpropyl)-6-oxo-1,6-dihydropyridazin-4-yl)pyrrolidin-3-yl (4,4-difluorocyclohexyl)carbamate] |
| 0.001 to 10 | 0.001 to 10 | O=C(NC1CCC(F)(F)CC1)O[C@@H]1CCN(c2cnn(CCCO)c(=O)c2Cl)C1 [P-0332, (R)-1-(5-chloro-1-(3-hydroxypropyl)-6-oxo-1,6-dihydropyridazin-4-yl)pyrrolidin-3-yl (4,4-difluorocyclohexyl)carbamate] |
| 0.001 to 10 | 0.001 to 10 | O=C(NC1CCN(C(=O)CO)CC1(F)F)O[C@@H]1CCN(c2cn[nH]c(=O)c2Cl)C1 (stereo partly drawn) [P-0333, (R)-1-(5-chloro-6-oxo-1,6-dihydropyridazin-4-yl)pyrrolidin-3-yl (3,3-difluoro-1-(2-hydroxyacetyl)piperidin-4-yl)carbamate] |
| 0.001 to 10 | 0.001 to 10 | CS(=O)(=O)N[C@H]1CC[C@H](NC(=O)O[C@@H]2CCN(c3cnn(CCO)c(=O)c3Cl)C2)CC1 [P-0334, (R)-1-(5-chloro-1-(2-hydroxyethyl)-6-oxo-1,6-dihydropyridazin-4-yl)pyrrolidin-3-yl ((1r,4R)-4-(methylsulfonamido)cyclohexyl)carbamate] |
| 0.001 to 10 | 0.001 to 10 | C[C@@H]1CCCC[C@H]1NC(=O)O[C@@H]1CCN(c2cn[nH]c(=O)c2Cl)C1 [P-0335, (R)-1-(5-chloro-6-oxo-1,6-dihydropyridazin-4-yl)pyrrolidin-3-yl ((1R,2R)-2-methylcyclohexyl)carbamate] |
| 10 to 100 | 0.001 to 10 | C[C@H]1C[C@@H](OC(=O)NC2CCC(F)(F)CC2)CN1c1cn[nH]c(=O)c1Cl [P-0336, (3R,5S)-1-(5-chloro-6-oxo-1,6-dihydropyridazin-4-yl)-5-methylpyrrolidin-3-yl (4,4-difluorocyclohexyl)carbamate] |
| 10 to 100 | 0.001 to 10 | C[C@@H]1C[C@@H](OC(=O)NC2CCC(F)(F)CC2)CN1c1cn[nH]c(=O)c1Cl [P-0337, (3R,5R)-1-(5-chloro-6-oxo-1,6-dihydropyridazin-4-yl)-5-methylpyrrolidin-3-yl (4,4-difluorocyclohexyl)carbamate] |
| 0.001 to 10 | 0.001 to 10 | O=C(NC1CC(CO)(CCl)C1)O[C@@H]1CCN(c2cn[nH]c(=O)c2Cl)C1 (stereo partly drawn) [P-0338, (R)-1-(5-chloro-6-oxo-1,6-dihydropyridazin-4-yl)pyrrolidin-3-yl (3-(chloromethyl)-3-(hydroxymethyl)cyclobutyl) carbamate] |
| 0.001 to 10 | 0.001 to 10 | O=C(N[C@H]1CC[C@@H](F)CC1)O[C@@H]1CCN(c2cn[nH]c(=O)c2Cl)C1 [P-0339, (R)-1-(5-chloro-6-oxo-1,6-dihydropyridazin-4-yl)pyrrolidin-3-yl ((1s,4S)-4-fluorocyclohexyl)carbamate] |
| 0.001 to 10 | 0.001 to 10 | CC(=O)N1CC[C@H](NC(=O)O[C@@H]2CCN(c3cn[nH]c(=O)c3Cl)C2)C1 [P-0340, (R)-1-(5-chloro-6-oxo-1,6-dihydropyridazin-4-yl)pyrrolidin-3-yl ((S)-1-acetylpyrrolidin-3-yl)carbamate] |
| 10 to 100 | 0.001 to 10 | CS(=O)(=O)N1CC[C@H](NC(=O)O[C@@H]2CCN(c3cn[nH]c(=O)c3Cl)C2)C1 [P-0341, (R)-1-(5-chloro-6-oxo-1,6-dihydropyridazin-4-yl)pyrrolidin-3-yl ((S)-1-(methylsulfonyl)pyrrolidin-3-yl)carbamate] |
| 10 to 100 | 0.001 to 10 | O=C(N[C@H]1CCN(C(=O)c2ccccc2)C1)O[C@@H]1CCN(c2cn[nH]c(=O)c2Cl)C1 [P-0342, (R)-1-(5-chloro-6-oxo-1,6-dihydropyridazin-4-yl)pyrrolidin-3-yl ((S)-1-benzoylpyrrolidin-3-yl)carbamate] |
| 10 to 100 | 0.001 to 10 | O=C(N[C@H]1CCN(C(=O)NC2CCCCC2)C1)O[C@@H]1CCN(c2cn[nH]c(=O)c2Cl)C1 [P-0343, (R)-1-(5-chloro-6-oxo-1,6-dihydropyridazin-4-yl)pyrrolidin-3-yl ((S)-1-(cyclohexylcarbamoyl)pyrrolidin-3-yl)carbamate] |
